Test results from patent US12324795B2, “Autophagy activating agent” (WAKUNAGA PHARMACEUTICAL CO., LTD., priority 2018, dated 2025).

Experiments:
Format in all cases: cell-based
LC3B-II = test: Western blotting of LC3B-II expression in rotenone-treated human neuroblasts; settings: SH-SY5Y cells, 10 μM rotenone, 0.3 mM S1PC, 1 mM 3-methyladenine, 3 hours, FIG. 5
Experimental: (§1) Human neuroblastoma cell line SH-SY5Y cells were cultured in a Dulbecco's modified Eagle medium supplemented with 10% fetal bovine serum, and antibiotic penicillin-streptomycin solution, and the cultured cells were used as cells for evaluation test.
(§2) 10 μM rotenone, 0.3 mM S1PC, and 1 mM autophagy inhibitor (3-methyladenine) were added to the human neuroblasts for evaluation test prepared in (2) above, and the cells were cultured for 3 hours. A cell extract was prepared in the same manner as in (a) above, and analyzed by western blotting in accordance with a usual method. An anti-α-synuclein antibody, an anti-LC3B antibody (manufactured by Cell Signaling Technology, Inc.), and an anti-β-actin antibody (manufactured by MEDICAL & BIOLOGICAL LABORATORIES CO., LTD.) were used as antibodies.

tau protein = test: Western blotting of tau protein (tau protein-removing effect) in okadaic acid-treated human neuroblasts; settings: SH-SY5Y cells
Experimental: as §1
(§3) Okadaic acid (at a concentration of 100 nM) and S1PC (at concentrations of 0.03, 0.1, and 0.3 mM) were added to the human neuroblasts for evaluation test prepared in (2) above, and the cells were cultured for 6 hours. After culturing, the cultured cells were washed with a phosphate buffer, and then lysed with RIPA cell lysis buffer (manufactured by Millipore Corporation) diluted 10-fold with purified water containing a protease/phosphatase cocktail inhibitor (manufactured by Thermo Fisher Scientific K.K.). After that, centrifugation was conducted (at 10000 rpm, for 10 minutes, at 4° C.), and the supernatant was used as a cell extract. This cell extract was used to conduct analysis by western blotting in accordance with a usual method. An anti-Atg7 antibody (manufactured by Cell Signaling Technology, Inc.), an anti-4T-tau antibody (manufactured by Wako Pure Chemical Industries, Ltd.), and an anti-β-actin antibody (manufactured by Wako Pure Chemical Industries, Ltd.) were used as antibodies.
(§4) 10 nM okadaic acid, 0.3 mM S1PC, and 10 mM autophagy inhibitor (3-methyladenine) were added to the human neuroblasts for evaluation test prepared in (2) above, and the cells were cultured for 24 hours. A cell extract was prepared in the same manner as in (a) above, and analyzed by western blotting in accordance with a usual method. An anti-Atg7 antibody (manufactured by Cell Signaling Technology, Inc.), an anti-4T-tau antibody (manufactured by Wako Pure Chemical Industries, Ltd.), and an anti-β-actin antibody (manufactured by Wako Pure Chemical Industries, Ltd.) were used as antibodies.
as §4, with “50” for “10”, “acid and” for “acid,”, “S1PC or SAC” for “S1PC, and 10 mM autophagy inhibitor (3-methyladenine)”, “6” for “24”, “An” for “An anti-Atg7 antibody (manufactured by Cell Signaling Technology, Inc.), an”, “Ltd.)” for “Ltd.),”

α-synuclein protein = test: Western blotting of α-synuclein protein (α-synuclein protein-removing effect) in rotenone-treated human neuroblasts; settings: SH-SY5Y cells, 3 hours
Experimental: as §1, §2
as §2, with “500 nM” for “10 μM”, “rotenone, and” for “rotenone,”, “S1PC or SAC” for “S1PC, and 1 mM autophagy inhibitor (3-methyladenine)”, “(2),” for “(2) above,”, “used. […] Therefore, S1PC is considered to be useful for Parkinson's disease, for example, accompanied by α-synuclein protein accumulation.” for “used as antibodies.”

Atg7 = test: Western blotting of Atg7 expression (autophagy activation) in okadaic acid-treated human neuroblasts; settings: SH-SY5Y cells
Experimental: as §1
as §3, with “An anti-Atg7 antibody (manufactured by Cell Signaling Technology, Inc.), an anti-4T-tau antibody (manufactured by Wako Pure Chemical Industries, Ltd.), and an anti-β-actin antibody (manufactured by Wako Pure Chemical Industries, Ltd.) were used as antibodies.” left out
10 nM okadaic acid, 0.3 mM S1PC, and 10 mM autophagy inhibitor (3-methyladenine) were added to the human neuroblasts for evaluation test prepared in (2) above, and the cells were cultured for 24 hours. A cell extract was prepared in the same manner as in (a) above, and analyzed by western blotting in accordance with a usual method. […]

caspase-3 = test: Western blotting of caspase-3 activation (apoptosis inhibitory effect) in okadaic acid-treated human neuroblasts; settings: SH-SY5Y cells, 100 nM okadaic acid, 0.3 mM S1PC, 6 hours, FIG. 3
Experimental: as §1
as §4, with “100” for “10”, “acid and” for “acid,”, “S1PC” for “S1PC, and 10 mM autophagy inhibitor (3-methyladenine)”, “6” for “24”, “anti-caspase-3” for “anti-Atg7”, “Inc.)” for “Inc.), an anti-4T-tau antibody (manufactured by Wako Pure Chemical Industries, Ltd.),”

[1] = 10 nM okadaic acid, 0.3 mM S1PC, 10 mM 3-methyladenine, 24 hours, FIG. 2
[2] = okadaic acid 100 nM, S1PC 0.03, 0.1 and 0.3 mM, 6 hours, FIG. 1

CC=CSCC(N)C(=O)O (centres unmarked) [S1PC, S-1-propenylcysteine]
LC3B-II expression-increasing effect with autophagy inhibitor (LC3B-II): suppressed by adding the autophagy inhibitor | tau protein-removing effect with autophagy inhibitor (tau protein; [1]): suppressed by adding the autophagy inhibitor | tau protein-removing effect compared with SAC (tau protein; 50 nM okadaic acid, 0.3 mM S1PC or SAC, 6 hours, FIG. 4): superior to SAC | tau protein (tau protein; 50 nM okadaic acid, 0.3 mM, 6 hours, FIG. 4): decreased | removal of tau proteins (tau protein; [2]): promoted removal | α-synuclein protein-removing effect compared with SAC (α-synuclein protein; 500 nM rotenone, 0.3 mM S1PC or SAC, FIG. 6): superior to SAC | α-synuclein protein (α-synuclein protein; 500 nM rotenone, 0.3 mM, FIG. 6): decreased | α-synuclein protein-removing effect with autophagy inhibitor (α-synuclein protein; 10 μM rotenone, 0.3 mM S1PC, 1 mM 3-methyladenine, FIG. 5): suppressed by adding the autophagy inhibitor | Atg7 expression-increasing effect with autophagy inhibitor (Atg7; [1]): suppressed by adding the autophagy inhibitor | Atg7 expression (Atg7; [2]): increased | activation of caspase-3 (caspase-3): suppressed
